Experiment [1] has as its target PIK3CA (human) (UniProt P42336). The experiment is described as follows: Inhibition of A2780 Cell Proliferation.
For experiment [2] the target is unchanged. The experiment can be described thus: Inhibition of PIK3CA Kinase Activity.

EC50 and IC50 data for 34 compounds are collected here from the Kinase Knowledgebase extract (Sharma et al. 2016).

Sequence of PIK3CA (human) (P42336 whole entry, looked up): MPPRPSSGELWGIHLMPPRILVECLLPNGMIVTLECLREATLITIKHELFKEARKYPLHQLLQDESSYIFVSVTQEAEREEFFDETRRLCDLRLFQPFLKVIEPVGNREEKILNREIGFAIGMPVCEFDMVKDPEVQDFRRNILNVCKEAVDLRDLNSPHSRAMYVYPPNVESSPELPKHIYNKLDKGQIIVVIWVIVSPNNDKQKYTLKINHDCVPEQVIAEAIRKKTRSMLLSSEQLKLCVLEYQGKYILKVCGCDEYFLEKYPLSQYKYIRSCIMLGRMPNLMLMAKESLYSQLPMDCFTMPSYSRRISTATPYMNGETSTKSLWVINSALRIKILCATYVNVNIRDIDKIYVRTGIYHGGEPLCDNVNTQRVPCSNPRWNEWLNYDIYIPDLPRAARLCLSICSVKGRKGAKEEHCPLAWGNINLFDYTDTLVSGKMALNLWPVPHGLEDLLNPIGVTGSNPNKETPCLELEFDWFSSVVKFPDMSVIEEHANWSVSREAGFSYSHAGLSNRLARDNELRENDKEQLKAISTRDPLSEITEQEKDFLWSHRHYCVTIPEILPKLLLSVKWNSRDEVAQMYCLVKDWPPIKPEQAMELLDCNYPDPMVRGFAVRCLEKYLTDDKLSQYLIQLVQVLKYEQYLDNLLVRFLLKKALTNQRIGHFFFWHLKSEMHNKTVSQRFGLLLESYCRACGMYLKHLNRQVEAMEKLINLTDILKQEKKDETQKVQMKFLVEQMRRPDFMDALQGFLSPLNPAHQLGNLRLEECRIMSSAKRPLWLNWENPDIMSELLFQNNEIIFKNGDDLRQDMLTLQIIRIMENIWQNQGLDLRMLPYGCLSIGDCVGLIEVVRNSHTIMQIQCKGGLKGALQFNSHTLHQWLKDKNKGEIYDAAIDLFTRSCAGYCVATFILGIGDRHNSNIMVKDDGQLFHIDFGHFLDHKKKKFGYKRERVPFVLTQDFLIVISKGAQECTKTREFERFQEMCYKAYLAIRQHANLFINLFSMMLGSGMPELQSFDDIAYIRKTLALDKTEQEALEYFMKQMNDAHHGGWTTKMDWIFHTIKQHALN

Regarding `N#Cc1cccc(C(=O)Nc2cn3cc(-c4cnc(N)c(C(F)(F)F)c4)ccc3n2)c1`, the 50% effective concentration (EC50) (as a rule, the concentration at which the effect is half-maximal) on PIK3CA (human) [1] was less than 10000 nM. Besides, the 50% inhibitory concentration (IC50) (usually the concentration that gives 50% inhibition) on PIK3CA (human) [2] is less than 1000 nM.

At PIK3CA (human) [1], `CC(=O)Nc1cn2cc(-c3cnc(N)c(C(=O)NCCO)n3)ccc2n1` had an EC50 of less than 25000 nM. The same compound showed a half-maximal inhibitory concentration (IC50) against PIK3CA (human) [2] of less than 1000 nM.

With `CC(=O)Nc1cn2cc(-c3cnc(N)c(-c4cccc(OC(F)(F)F)c4)c3)ccc2n1`, the 50% effective concentration (EC50) at PIK3CA (human) [1] was less than 1000 nM. For the same compound, the concentration for half-maximal inhibition (IC50) at PIK3CA (human) [2] was less than 1000 nM.

For the compound `Nc1ncc(-c2ccc3nc(NC(=O)c4cccnc4)cn3c2)cc1C(F)(F)F`, at PIK3CA (human) [1], the 50% effective concentration (EC50) is less than 10000 nM. The compound also registered a concentration for half-maximal inhibition (IC50) on PIK3CA (human) [2] of less than 1000 nM.

Regarding `Nc1ncc(-c2ccc3nc(NC(=O)[C@H]4CCCCN4)cn3c2)cc1C(F)(F)F`, the EC50 on PIK3CA (human) [1] was less than 10000 nM. In addition, the IC50 against PIK3CA (human) [2] was less than 1000 nM.

As to `Nc1ccc(-c2ccc3nc(NC(=O)CN4CCOCC4)sc3c2)cn1`, the EC50 on PIK3CA (human) [1] was less than 25000 nM. For the same compound, at PIK3CA (human) [2], the half-inhibitory concentration (IC50) was less than 1000 nM.

As for `CC(=O)Nc1cn2cc(-c3cnc(N)c(C(=O)N4CCCC4)c3)ccc2n1`, the EC50 at PIK3CA (human) [1] is less than 25000 nM. Besides, at PIK3CA (human) [2], the IC50 is less than 1000 nM.

In turn, `CC(=O)Nc1cn2cc(-c3cnc(N)c(-c4ccccc4OC(F)(F)F)c3)ccc2n1` yielded an EC50 at PIK3CA (human) [1] of less than 10000 nM. In addition, at PIK3CA (human) [2], the 50% inhibitory concentration (IC50) is less than 1000 nM.

In the case of `COCCOc1nc(-c2ccc3nc(NC(C)=O)sc3c2)cnc1N`, the EC50 at PIK3CA (human) [1] was less than 10000 nM. This compound showed a concentration for half-maximal inhibition (IC50) at PIK3CA (human) [2] of less than 1000 nM.

In the case of `CC(=O)Nc1cn2nc(-c3cnc(N)c(C(=O)NCCNS(C)(=O)=O)c3)ccc2n1`, the EC50 at PIK3CA (human) [1] is less than 25000 nM. On PIK3CA (human) [2], this compound registered an IC50 of less than 1000 nM.

`CC(=O)Nc1nc2ccc(-c3cnc(N)c(C(F)(F)F)c3)cn2c1C(N)=O` displayed an EC50 on PIK3CA (human) [1] of less than 10000 nM. This compound gave an IC50 on PIK3CA (human) [2] of less than 1000 nM.

Regarding `C[C@@H](NC(=O)OC(C)(C)C)C(=O)Nc1cn2nc(-c3cnc(N)c(C(F)(F)F)c3)ccc2n1`, the EC50 at PIK3CA (human) [1] is less than 10000 nM. This compound also gave a half-maximal inhibitory concentration (IC50) on PIK3CA (human) [2] of less than 1000 nM.

In turn, `COc1nc(-c2ccc3nc(NC(C)=O)cn3n2)cnc1N` had an EC50 at PIK3CA (human) [1] of less than 10000 nM. The compound further displayed an IC50 on PIK3CA (human) [2] of less than 1000 nM.

`CC(=O)Nc1cn2cc(-c3cnc(N)c(C#N)c3)ccc2n1` yielded an EC50 at PIK3CA (human) [1] of less than 10000 nM. For the same compound, at PIK3CA (human) [2], the IC50 was less than 1000 nM.

Regarding `Nc1ncc(-c2ccc3nc(NC(=O)CCCN4CCOCC4)sc3c2)cn1`, on PIK3CA (human) [1], the concentration giving a half-maximal response (EC50) was less than 10000 nM. Further, the IC50 against PIK3CA (human) [2] was less than 1000 nM.

In turn, `CC(=O)Nc1cn2cc(-c3cnc(N)c(-c4cccc(N5CCOCC5)c4)c3)ccc2n1` had an EC50 on PIK3CA (human) [1] of less than 1000 nM. Further, on PIK3CA (human) [2], the IC50 is less than 1000 nM.

`Nc1ncc(-c2ccc3nc(NC(=O)N4CC[C@H]4C(=O)O)cn3c2)cc1C(F)(F)F` registered a half-maximal effective concentration (EC50) at PIK3CA (human) [1] of less than 25000 nM. Also, the half-inhibitory concentration (IC50) on PIK3CA (human) [2] is less than 10000 nM.

`CC(=O)Nc1cn2cc(-c3cnc(N)c(-c4ccc(F)cc4)c3)ccc2n1` yielded an EC50 at PIK3CA (human) [1] of less than 25000 nM. This compound registered an IC50 against PIK3CA (human) [2] of less than 1000 nM.

Compound `Nc1ncc(-c2ccc3nc(NC(=O)CCC4CCCCN4)cn3n2)cc1C(F)(F)F` (stereo not drawn) had an EC50 at PIK3CA (human) [1] of less than 1000 nM. The concentration for half-maximal inhibition (IC50) against PIK3CA (human) [2] was less than 1000 nM.

For `CCOC(=O)CC(=O)Nc1cn2cc(-c3cnc(N)c(C(F)(F)F)c3)ccc2n1`, the concentration for a half-maximal effect (EC50) on PIK3CA (human) [1] was less than 10000 nM. Further, the IC50 against PIK3CA (human) [2] was less than 1000 nM.

`COCCOc1nc(-c2ccc3nc(NC(=O)COC)cn3c2)cnc1N` came in with an EC50 at PIK3CA (human) [1] of less than 10000 nM. The half-inhibitory concentration (IC50) against PIK3CA (human) [2] was less than 1000 nM.

With `C/C=C\c1c(NC(C)=O)nc2ccc(-c3cnc(N)c(C(F)(F)F)c3)cn12`, on PIK3CA (human) [1], the EC50 was less than 25000 nM. The compound further showed a half-inhibitory concentration (IC50) against PIK3CA (human) [2] of less than 1000 nM.

Compound `CC(=O)Nc1cn2cc(-c3cnc(N)c(OC4CN(C(=O)c5ccccc5)C4)n3)ccc2n1` displayed an EC50 on PIK3CA (human) [1] of less than 10000 nM. The 50% inhibitory concentration (IC50) at PIK3CA (human) [2] was less than 1000 nM.

In turn, `COc1ccc(C#Cc2c(NC(C)=O)nc3ccc(-c4cnc(N)c(C(F)(F)F)c4)cn23)cc1` showed an EC50 at PIK3CA (human) [1] of less than 10000 nM. At PIK3CA (human) [2], this compound returned an IC50 of less than 1000 nM.

Compound `CCN(CC)CC#Cc1c(NC(C)=O)nc2ccc(-c3cnc(N)c(C(F)(F)F)c3)cn12` showed a concentration giving a half-maximal response (EC50) on PIK3CA (human) [1] of less than 10000 nM. At PIK3CA (human) [2], this compound showed an IC50 of less than 1000 nM.

For the compound `CCC(=O)Nc1cn2cc(-c3cnc(N)c(C(F)(F)F)c3)ccc2n1`, on PIK3CA (human) [1], the concentration for a half-maximal effect (EC50) was less than 10000 nM. Besides, the concentration for half-maximal inhibition (IC50) at PIK3CA (human) [2] is less than 1000 nM.

On PIK3CA (human) [1], `CC(C)(C)OC(=O)N1CC(C(=O)Nc2cn3cc(-c4cnc(N)c(C(F)(F)F)c4)ccc3n2)C1` registered a 50% effective concentration (EC50) of less than 10000 nM. Further, at PIK3CA (human) [2], the IC50 is less than 1000 nM.

In turn, `Nc1ncc(-c2ccc3nc(NC(=O)CCCN4CCOCC4)cn3c2)cc1C(F)(F)F` came in with an EC50 on PIK3CA (human) [1] of less than 10000 nM. Besides, the IC50 on PIK3CA (human) [2] was less than 1000 nM.

Take `CC(=O)Nc1cn2nc(-c3cnc(N)c(C(=O)NCCN)c3)ccc2n1`: the EC50 at PIK3CA (human) [1] is less than 25000 nM. The 50% inhibitory concentration (IC50) against PIK3CA (human) [2] is less than 1000 nM.

In the case of `NC(=O)[C@@H]1CCCN1C(=O)Nc1nc2ccc(-c3cnc(N)c(C(F)(F)F)c3)cc2s1`, at PIK3CA (human) [1], the EC50 was less than 10000 nM. The same compound yielded a 50% inhibitory concentration (IC50) against PIK3CA (human) [2] of less than 1000 nM.

As for `CC(=O)Nc1cn2cc(-c3cnc(N)c(C(=O)N4CCN(C(=O)OC(C)(C)C)CC4)c3)ccc2n1`, the half-maximal effective concentration (EC50) on PIK3CA (human) [1] is less than 25000 nM. At PIK3CA (human) [2], the half-inhibitory concentration (IC50) is less than 1000 nM.

`NC(=O)N1CC[C@H]1C(=O)Nc1cn2cc(-c3cnc(N)c(C(F)(F)F)c3)ccc2n1` had an EC50 at PIK3CA (human) [1] of less than 25000 nM. The 50% inhibitory concentration (IC50) at PIK3CA (human) [2] was less than 1000 nM.

On PIK3CA (human) [1], `CN(C)CCCC(=O)Nc1cn2nc(-c3cnc(N)c(C(F)(F)F)c3)ccc2n1` gave an EC50 of less than 1000 nM. The compound also showed an IC50 against PIK3CA (human) [2] of less than 1000 nM.

For `COC(=O)C1CCN(C(=O)Nc2cn3cc(-c4cnc(N)c(C(F)(F)F)c4)ccc3n2)C1` (stereo not drawn), the 50% effective concentration (EC50) on PIK3CA (human) [1] is less than 10000 nM. Besides, the concentration for half-maximal inhibition (IC50) against PIK3CA (human) [2] is less than 1000 nM.
